In patent publication US5837256A, “Method for treatment of Lupus nephritis” (priority 1996, dated 1998):

How the values were obtained:
[1] = Lignan content of urine of mice gavaged with SDG; settings: after oral SDG 0.6, 1.2 and 4.8 mg/mouse (FIG. 1)
Procedure: The mice were dosed with the SDG in amounts of 0.6, 1.2 and 4.8 mg/mouse. Urine samples from the mice were then analysed for lignans.

[2] = tested on: LDL cholesterol, cell mediated immunity, PAF production by PMN leucocytes, platelet aggregation; settings: cited from earlier work
[3] = Body weight (and food/water intake) of MRL/lpr lupus mice; format: in vivo, MRL/lpr mouse
Procedure: The MRL/lpr mouse model of lupus was chosen to study the effects of SDG on experimental nephritis since it represents the human disease in terms of immune and inflammatory reactions, and age-related renal function deterioration leading to progressive glomerular scarring. Mice were obtained at 5 weeks of age from Jackson Laboratories, Me., U.S.A., and acclimatized for one week. From 6 weeks of age onwards, all groups were gavaged with 200 μl/day of water. The appropriate amount of SDG was dissolved in the water to administer either the low-dose (600 μg/day) or the high-dose (1200 μg/day) of SDG. This example illustrates the effect of SDG on the body weight of MRL/lpr lupus mice in compared to the control group. The daily dosage was administered over a 17-week period (6 to 22 weeks of age).

[4] = tested on: MRL/lpr mouse model of lupus; assay: Onset and prevalence of proteinuria (Albustix) in MRL/lpr lupus mice; format: in vivo
Procedure: (§1) The MRL/lpr mouse model of lupus was chosen to study the effects of SDG on experimental nephritis since it represents the human disease in terms of immune and inflammatory reactions, and age-related renal function deterioration leading to progressive glomerular scarring.
(§2) Mice were obtained at 5 weeks of age from Jackson Laboratories, Me., U.S.A., and acclimatized for one week. From 6 weeks of age onwards, all groups were gavaged with 200 μl/day of water. The appropriate amount of SDG was dissolved in the water to administer either the low-dose (600 μg/day) or the high-dose (1200 μg/day) of SDG.
Gavaging was commenced at the age of 6 weeks in all groups.

[5] = tested on: MRL/lpr mouse model of lupus; assay: Glomerular filtration rate (14C-inulin clearance) in MRL/lpr mice; format: in vivo
Procedure: as §1, §2
This example illustrates the effect of SDG on the glomerular filtration rate (GFR) assessed by ^14 C-inulin clearance.

[6] = tested on: MRL/lpr mouse model of lupus; assay: Cervical lymph node weight in MRL/lpr mice (lymphadenopathy); format: in vivo; settings: for cervical lymph node weights: n = 10
Procedure: as §1, §2
We therefore examined the effects of low and high dosages of SDG on a deep cervical lymph node in these animals.
The data was non-normally distributed therefore, a non parametric (Kruskal-Wallis) statistical test was used.

[7] = tested on: MRL/lpr mouse model of lupus; assay: Spleen weight index in MRL/lpr mice (splenomegaly); format: in vivo; settings: for Spleen Weight/Body Weight Ratio (×100): n = 10
Procedure: as §1, §2
We therefore examined the effects of low and high dosages of SDG on spleen weight. The spleen weight index was obtained as a ratio of spleen to body weight (×100).
Data analyzed by ANOVA followed by Bonferroni t-tests

[8] = Gut absorption/conversion of SDG after oral intake; format: in vivo; settings: human or animal
Source text: Enterodiol and enterolactone are trivially referred to as lignans and contain a structural backbone of dibenzylbutane. The most abundant lignan detected in flax is secoisolariciresinol diglucoside (SDG).
The secoisolariciresinol (Seco) may be used per se or in the form of secoisolariciresinol diglucoside (SDG).

[9] = cited from earlier work
[10] = relative to Seco; cited from earlier work
[11] = High-Lignan gp (1200 μg/day), age wk9
[12] = High-Lignan gp (1200 μg/day), age wk11
[13] = High-Lignan gp (1200 μg/day), age wk13
[14] = High-Lignan gp (1200 μg/day), age wk15
[15] = High-Lignan gp (1200 μg/day), age wk17
[16] = High-Lignan gp (1200 μg/day), age wk19
[17] = High-Lignan gp (1200 μg/day), age wk21
[18] = Low-Lignan gp (600 μg/day), age wk9
[19] = Low-Lignan gp (600 μg/day), age wk11
[20] = Low-Lignan gp (600 μg/day), age wk13
[21] = Low-Lignan gp (600 μg/day), age wk15
[22] = Low-Lignan gp (600 μg/day), age wk17
[23] = Low-Lignan gp (600 μg/day), age wk19
[24] = Low-Lignan gp (600 μg/day), age wk21

With `OC[C@H](Cc1cccc(O)c1)[C@H](CO)Cc1cccc(O)c1` [enterodiol] the “mammalian lignans in the urine” value [1] was “only traces”.

In the case of `CC/C=C\C/C=C\C/C=C\CCCCCCCC(=O)O` [alpha-linolenic acid], the LDL cholesterol [2] is listed as “lower”, the “PAF production by PMN leucocytes” value [2] is listed as “lower” and the cell mediated immunity [2] is listed as “lower”. For the same molecule, the platelet aggregation [2] was “lower”.

With `COc1cc(C[C@@H](CO[C@@H]2O[C@H](CO)[C@@H](O)[C@H](O)[C@H]2O)[C@H](CO[C@@H]2O[C@H](CO)[C@@H](O)[C@H](O)[C@H]2O)Cc2ccc(O)c(OC)c2)ccc1O` [SDG, secoisolariciresinol diglucoside] the food intake ([3]; 600 and 1200 μg/day) was “no significant difference”, the water intake ([3]; 600 and 1200 μg/day) was “no significant difference” and the “body weight gain in the different treatment groups” value ([3]; 600 and 1200 μg/day, 6 to 22 weeks of age) was “no significant difference”. The “Body Weight” value ([3]; High-Lignan gp (1200 μg/day), age w22) was 38 ± 3 g, the “Body Weight” value ([3]; High-Lignan gp (1200 μg/day), age wk5 (before gavage, which began at 6 weeks)) was 25 ± 2 g and the “Body Weight” value ([3]; High-Lignan gp (1200 μg/day), age wk7) was 26 ± 2 g. For the same molecule, the “Body Weight” value [3, 11] was 27 ± 2 g, the “Body Weight” value [3, 12] was 29 ± 2 g and the “Body Weight” value [3, 13] was 31 ± 3 g. For the same molecule, the “Body Weight” value [3, 14] was 34 ± 3 g, the “Body Weight” value [3, 15] was 37 ± 3 g and the “Body Weight” value [3, 16] was 38 ± 3 g. For the same molecule, the “Body Weight” value [3, 17] was 39 ± 3 g, the “Body Weight” value ([3]; Low-Lignan gp (600 μg/day), age w22) was 38 ± 3 g and the “Body Weight” value ([3]; Low-Lignan gp (600 μg/day), age wk5 (before gavage, which began at 6 weeks)) was 25 ± 2 g. For the same molecule, the “Body Weight” value ([3]; Low-Lignan gp (600 μg/day), age wk7) was 26 ± 3 g, the “Body Weight” value [3, 18] was 27 ± 3 g and the “Body Weight” value [3, 19] was 29 ± 3 g. The “Body Weight” value [3, 20] was 31 ± 3 g, the “Body Weight” value [3, 21] was 33 ± 3 g and the “Body Weight” value [3, 22] was 36 ± 3 g. For the same molecule, the “Body Weight” value [3, 23] was 37 ± 3 g, the “Body Weight” value [3, 24] was 38 ± 4 g and the “% of mice with ≥ 2 proteinuria on Albustix” value (from here on “% of mice”) [4, 11] was 0%. The “% of mice” value ([4]; High-Lignan gp (1200 μg/day), age wk 10) was 0%, the “% of mice” value [4, 12] was 4% and the “% of mice” value ([4]; High-Lignan gp (1200 μg/day), age wk 12) was 4%. The “% of mice” value [4, 13] was 4%, the “% of mice” value ([4]; High-Lignan gp (1200 μg/day), age wk 14) was 4% and the “% of mice” value [4, 14] was 7%. For the same molecule, the “% of mice” value ([4]; High-Lignan gp (1200 μg/day), age wk 16) was 7%, the “% of mice” value [4, 15] was 7% and the “% of mice” value ([4]; High-Lignan gp (1200 μg/day), age wk 18) was 21%. For the same molecule, the “% of mice” value [4, 16] was 36%, the “% of mice” value ([4]; High-Lignan gp (1200 μg/day), age wk 20) was 50% and the “% of mice” value [4, 17] was 43%. For the same molecule, the “% of mice” value ([4]; High-Lignan gp (1200 μg/day), age wks 6-8) was 0%, the “% of mice” value [4, 18] was 0% and the “% of mice” value ([4]; Low-Lignan gp (600 μg/day), age wk 10) was 0%. The “% of mice” value [4, 19] was 0%, the “% of mice” value ([4]; Low-Lignan gp (600 μg/day), age wk 12) was 0% and the “% of mice” value [4, 20] was 0%. For the same molecule, the “% of mice” value ([4]; Low-Lignan gp (600 μg/day), age wk 14) was 17%, the “% of mice” value [4, 21] was 21% and the “% of mice” value ([4]; Low-Lignan gp (600 μg/day), age wk 16) was 21%. The “% of mice” value [4, 22] was 23%, the “% of mice” value ([4]; Low-Lignan gp (600 μg/day), age wk 18) was 38% and the “% of mice” value [4, 23] was 38%. For the same molecule, the “% of mice” value ([4]; Low-Lignan gp (600 μg/day), age wk 20) was 38%, the “% of mice” value [4, 24] was 27% and the “% of mice” value ([4]; Low-Lignan gp (600 μg/day), age wks 6-8) was 0%. The onset of proteinuria ([4]; low and high dosages) was “delay the onset of proteinuria”, the prevalence of proteinuria ([4]; low and high dosages) was “reduce the prevalence of proteinuria” and the “dose dependence of benefit on GFR” value ([5]; 600 and 1200 μg/day) was “dose-dependant benefit”. For the same molecule, the GFR ([5]; High-Lignan (1200 μg/day), 14 wks of age, n = 9) was 8.09 ± 2.74 ml/min/kg body weight, the GFR ([5]; High-Lignan (1200 μg/day), 22 wks of age, n = 10) was 5.33 ± 3.16 ml/min/kg body weight and the GFR ([5]; Low-Lignan (600 μg/day), 14 wks of age, n = 10) was 7.41 ± 3.88 ml/min/kg body weight. For the same molecule, the GFR ([5]; Low-Lignan (600 μg/day), 22 wks of age, n = 10) was 4.81 ± 1.49 ml/min/kg body weight, the “decline of renal function (GFR)” value ([5]; compared to vehicle treated control group) was “attenuates the decline of renal function (GFR)” and the “reducing cell proliferation, a marker of immune and inflammatory activity” value ([6]; Examples 5 and 6 taken together) was “moderate benefits”. For the same molecule, the “cervical lymph node weights” value ([6]; High-Lignan (1200 μg/day), 14 wks of age) was 71 ± 65 mg, the “cervical lymph node weights” value ([6]; High-Lignan (1200 μg/day), 22 wks of age, a,b: significantly greater than baseline and than 14 week values) was 211 ± 58 mg and the “cervical lymph node weights” value ([6]; Low-Lignan (600 μg/day), 14 wks of age, a: significantly greater than baseline) was 97 ± 69 mg. The “cervical lymph node weights” value ([6]; Low-Lignan (600 μg/day), 22 wks of age, a: significantly greater than baseline) was 251 ± 91 mg, the “increase in lymph node weight” value ([6]; high dose (1200 μg/day), at/up to 14 weeks of age, Kruskal-Wallis) was “attenuated the increase in lymph node weight” and the “spleen weight index in the different groups” value ([7]; 600 and 1200 μg/day, ANOVA, Bonferroni t-tests) was “no significant difference”. The “Spleen Weight/Body Weight Ratio (×100)” value ([7]; High-Lignan (1200 μg/day), 14 wks of age, marked a) was 0.77 ± 0.26, the “Spleen Weight/Body Weight Ratio (×100)” value ([7]; High-Lignan (1200 μg/day), 22 wks of age, marked a,b) was 1.74 ± 0.35 and the “Spleen Weight/Body Weight Ratio (×100)” value ([7]; Low-Lignan (600 μg/day), 14 wks of age, marked a) was 0.93 ± 0.33. For the same molecule, the “Spleen Weight/Body Weight Ratio (×100)” value ([7]; Low-Lignan (600 μg/day), 22 wks of age, marked a,b) was 1.89 ± 0.39, the “spleen weight gain compared to other groups” value ([7]; high dose SDG group, 14 weeks age-interval) was “moderately smaller spleen weight gain” and the “conversion in the gut after oral administration” value [8] was “converted to secoisolariciresinol in the gut”. The metabolism on ingestion ([9]; enzymatic hydrolysis and intestinal microflora) was “enzymatically hydrolyzed to the aglycone and transformed by intestinal microflora into enterodiol and enterolactone”, the “absorption across the gut wall” value ([9]; generally accepted for diglycosides) was “not absorbed across the gut wall” and the “water solubility compared with Seco” value [10] was “greater water solubility”.

With `COc1cc(CC(CO)C(CO)Cc2ccc(O)c(OC)c2)ccc1O` (stereo not drawn) [secoisolariciresinol] the “secoisolariciresinol concentrations in the urine” value [1] was “SDG dose dependent”.
